Results: ChEMBL document CHEMBL1201862, “PubChem BioAssay data set” (2004)
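How tested: cells in 96-well plates exposed to compound for 48 hours at five concentrations. GI50 is the concentration that inhibits growth by half.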 Activity calls are given as the source filed them. Cut-off read from the data, not from the text of the source: active = GI50 up to about 1.1 µM and inactive = higher. Residues, ends and D or L forms follow the SMILES beside them. *: point of attachment. Boc = CC(C)(C)OC(=O)*; OBn = c1ccc(CO*)cc1

Columns and labels:
Experiment in all cases: NCI-60 cell line screen, 48 h
[1] = system: OVCAR-3
[2] = system: SW-620
[3] = system: MDA-MB-435
[4] = system: Malme-3M
[5] = system: OVCAR-4
[6] = system: MOLT-4
[7] = system: RXF 393
[8] = system: SR
[9] = system: BT-549
[10] = system: SK-MEL-2
[11] = system: OVCAR-5
[12] = system: T47D
[13] = system: M14
[14] = system: OVCAR-8
[15] = system: A549
[16] = system: ACHN
[17] = system: PC-3
[18] = system: SK-OV-3
[19] = system: UACC-62
[20] = system: SK-MEL-5

| Compound | GI50 [1] | GI50 [2] | GI50 [3] | GI50 [4] | GI50 [5] | GI50 [6] | GI50 [7] | GI50 [8] | GI50 [9] | GI50 [10] | GI50 [11] | GI50 [12] | GI50 [13] | GI50 [14] | GI50 [15] | GI50 [16] | GI50 [17] | GI50 [18] | GI50 [19] | GI50 [20] |
| --- | --- | --- | --- | --- | --- | --- | --- | --- | --- | --- | --- | --- | --- | --- | --- | --- | --- | --- | --- | --- |
| C=Cc1cc(OC)c2c(c1)c(=O)oc1c2cc(OC)c2c(O)ccc(C3OC(C)C(O)C(C)(O)C3O)c21 (centres undefined) | 0.0548 µM (active) | 0.0225 µM (active) | 0.00163 µM (active) | 0.0764 µM (active) | 0.0271 µM (active) | 0.0225 µM (active) | 0.0225 µM (active) | 3.07e-06 µM (active) | 0.00183 µM (active) | 0.0294 µM (active) | 0.0397 µM (active) | 0.00147 µM (active) | 0.000382 µM (active) | 0.025 µM (active) | 0.0328 µM (active) | 0.000409 µM (active) | 0.000638 µM (active) | 0.0445 µM (active) | 0.0317 µM (active) | – |
| CC1=Nc2sc3c(c2C2=NCCN12)CCCC3 | 28.2 µM (inactive) | 25.4 µM (inactive) | 34 µM (inactive) | 25.7 µM (inactive) | 42.4 µM (inactive) | 26.1 µM (inactive) | 31.3 µM (inactive) | 23.2 µM (inactive) | 19.1 µM (inactive) | 35.8 µM (inactive) | 30.7 µM (inactive) | 32.7 µM (inactive) | – | 15.3 µM (inactive) | – | 25.8 µM (inactive) | 20 µM (inactive) | – | 15.3 µM (inactive) | 28.2 µM (inactive) |
| O=C(NO)c1ccc(OCc2cccc(Cl)c2)cc1 | 4.55 µM (inactive) | 5.08 µM (inactive) | 6.67 µM (inactive) | – | 8.95 µM (inactive) | 2.62 µM (inactive) | 10.2 µM (inactive) | 2.16 µM (inactive) | 13.7 µM (inactive) | 12.8 µM (inactive) | 6.15 µM (inactive) | 6.97 µM (inactive) | 12.9 µM (inactive) | 3.01 µM (inactive) | 8.18 µM (inactive) | 4.57 µM (inactive) | 6.64 µM (inactive) | 8.45 µM (inactive) | 5.4 µM (inactive) | 12.4 µM (inactive) |
| Nc1nc(Cl)c2ncn(Cc3ccccc3CCl)c2n1 | 3.37 µM (inactive) | 3.3 µM (inactive) | 6.07 µM (inactive) | 3.36 µM (inactive) | 2.48 µM (inactive) | 5.19 µM (inactive) | – | 3.34 µM (inactive) | 8.18 µM (inactive) | 18.5 µM (inactive) | 19.9 µM (inactive) | 24.2 µM (inactive) | 5.73 µM (inactive) | 3.86 µM (inactive) | 22 µM (inactive) | 5.69 µM (inactive) | 15 µM (inactive) | 15.3 µM (inactive) | 2.21 µM (inactive) | 8.55 µM (inactive) |
| CCN(CC)C1CCC(C2c3cc4c(cc3OC(N3CCOCC3)C2C)OCO4)CC1 (centres undefined) | 14.7 µM (inactive) | 16.1 µM (inactive) | 6.81 µM (inactive) | 21.6 µM (inactive) | > 100 µM (inactive) | 10.1 µM (inactive) | 10.7 µM (inactive) | 23.4 µM (inactive) | 16.9 µM (inactive) | 5.62 µM (inactive) | 36.4 µM (inactive) | 14.4 µM (inactive) | 13.7 µM (inactive) | 23.6 µM (inactive) | 27.5 µM (inactive) | 16.7 µM (inactive) | 10.4 µM (inactive) | – | 16.7 µM (inactive) | 9.31 µM (inactive) |
| C=C1CN(C2=NCCO2)C1 | > 100 µM (inactive) | > 100 µM (inactive) | > 100 µM (inactive) | > 100 µM (inactive) | > 100 µM (inactive) | > 100 µM (inactive) | > 100 µM (inactive) | > 100 µM (inactive) | > 100 µM (inactive) | > 100 µM (inactive) | > 100 µM (inactive) | > 100 µM (inactive) | > 100 µM (inactive) | > 100 µM (inactive) | > 100 µM (inactive) | > 100 µM (inactive) | > 100 µM (inactive) | – | > 100 µM (inactive) | > 100 µM (inactive) |
| CCOC(=O)NC(Nc1c(F)c(F)c(F)c(F)c1F)(C(F)(F)F)C(F)(F)F | > 100 µM (inactive) | > 100 µM (inactive) | > 100 µM (inactive) | > 100 µM (inactive) | – | > 100 µM (inactive) | > 100 µM (inactive) | > 100 µM (inactive) | > 100 µM (inactive) | > 100 µM (inactive) | > 100 µM (inactive) | > 100 µM (inactive) | > 100 µM (inactive) | > 100 µM (inactive) | > 100 µM (inactive) | > 100 µM (inactive) | > 100 µM (inactive) | > 100 µM (inactive) | > 100 µM (inactive) | > 100 µM (inactive) |
| CCOC(CBr)OC1C(=O)OCC1(C)C (centres undefined) | – | > 100 µM (inactive) | > 100 µM (inactive) | > 100 µM (inactive) | > 100 µM (inactive) | > 100 µM (inactive) | > 100 µM (inactive) | > 100 µM (inactive) | > 100 µM (inactive) | > 100 µM (inactive) | > 100 µM (inactive) | > 100 µM (inactive) | > 100 µM (inactive) | > 100 µM (inactive) | > 100 µM (inactive) | > 100 µM (inactive) | > 100 µM (inactive) | > 100 µM (inactive) | > 100 µM (inactive) | > 100 µM (inactive) |
| O=C(CCc1ccc(O)c(O)c1)NCCc1cc(O)cc(OCc2ccccc2)c1 | 35.8 µM (inactive) | 25.9 µM (inactive) | 27.2 µM (inactive) | – | – | 14 µM (inactive) | 83.4 µM (inactive) | 21.1 µM (inactive) | 10.6 µM (inactive) | 43.1 µM (inactive) | 87.9 µM (inactive) | 15.3 µM (inactive) | 32.1 µM (inactive) | – | 52.6 µM (inactive) | 8.75 µM (inactive) | 31.9 µM (inactive) | 28.7 µM (inactive) | 31.3 µM (inactive) | 13.5 µM (inactive) |
| CCCCOC(=O)NC(c1ccccc1)C(O)C(=O)OC1C[C@@]2(O)C(OC(=O)c3ccccc3)C3[C@](C)(C(=O)[C@H](OC(C)=O)C(=C1C)C2(C)C)[C@@H](O)C[C@H]1OC[C@@]31OC(C)=O (some centres undefined) | 0.00906 µM (active) | 0.00627 µM (active) | 0.00224 µM (active) | – | 2.92 µM (inactive) | 0.0407 µM (active) | 0.0156 µM (active) | 0.00499 µM (active) | 0.0148 µM (active) | 0.00773 µM (active) | 0.015 µM (active) | 0.175 µM (active) | 0.0102 µM (active) | 0.0117 µM (active) | 0.00873 µM (active) | 0.0678 µM (active) | 0.0171 µM (active) | 0.0205 µM (active) | 0.0134 µM (active) | 0.0102 µM (active) |
| CC(C)CC(NC(=O)OC(C)(C)C)C(=O)NC(CC(=O)OCc1ccccc1)C(=O)OCc1ccccc1 (stereo not drawn) (Boc-Leu-Asp(OBn)-OBn; configuration not given here) | 22.4 µM (inactive) | 34.2 µM (inactive) | 40.1 µM (inactive) | 51.5 µM (inactive) | – | 31 µM (inactive) | 26.1 µM (inactive) | 25.8 µM (inactive) | 81.5 µM (inactive) | 63 µM (inactive) | > 100 µM (inactive) | > 100 µM (inactive) | 19.2 µM (inactive) | > 100 µM (inactive) | > 100 µM (inactive) | – | 29.4 µM (inactive) | > 100 µM (inactive) | 21.9 µM (inactive) | 24.7 µM (inactive) |
